ChEMBL document CHEMBL1152710, “The design and discovery of novel amide CCR5 antagonists” (Bioorg Med Chem Lett, 2009)

Experiments:
[1] = molecular target: T1, C-C chemokine receptor type 5 (Homo sapiens, UniProt P51681); test: Antagonist activity at human recombinant CCR5 expressed in human HeLa-P4 cells assessed as inhibition of human HeLa-P4 cells binding to HIV1 gp160 expressing CHO cells at 10 uM by cell-cell fusion assay; assay type: cell-based; set-up: scale not given: the % may be the effect or the level left
Target sequence in this assay (P51681 whole entry, looked up, the tested form may be a part): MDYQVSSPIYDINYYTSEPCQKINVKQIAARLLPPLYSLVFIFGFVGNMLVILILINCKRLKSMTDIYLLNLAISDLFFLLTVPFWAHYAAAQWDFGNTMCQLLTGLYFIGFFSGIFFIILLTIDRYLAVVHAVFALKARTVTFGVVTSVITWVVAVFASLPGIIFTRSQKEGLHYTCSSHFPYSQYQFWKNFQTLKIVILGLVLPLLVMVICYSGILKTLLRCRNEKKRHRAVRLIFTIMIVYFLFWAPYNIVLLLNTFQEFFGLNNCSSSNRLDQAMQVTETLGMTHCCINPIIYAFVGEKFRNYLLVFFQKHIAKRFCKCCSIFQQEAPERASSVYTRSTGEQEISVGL

[2] = molecular target: T1, C-C chemokine receptor type 5; test: Antagonist activity at human recombinant CCR5 expressed in human HeLa-P4 cells assessed as inhibition of human HeLa-P4 cells binding to HIV1 gp160 expressing CHO cells at 1 uM by cell-cell fusion assay; assay type: cell-based; set-up: scale not given: the % may be the effect or the level left
Target sequence in this assay (P51681 whole entry, looked up, the tested form may be a part): as above

[3] = Lipophilicity, log D at pH 7.4; assay type: physicochemical; conditions: buffer
[4] = Metabolic stability in human liver microsomes assessed as intrinsic clearance at 1 uM after 30 mins; assay type: ADME, Microsome
[5] = molecular target: T1, C-C chemokine receptor type 5; test: Displacement of [125]Mip1beta form CCR5 receptor expressed in MIP34.10 cells; assay type: cell-based
Target sequence in this assay (P51681 whole entry, the tested form may be a part): as the sequence (P51681 whole entry, looked up, the tested form may be a part) above

[6] = tested on: Human immunodeficiency virus 1; test: Antiviral activity against HIV1 Bal infected in human PM1 cells assessed as inhibition of viral replication; assay type: functional; conditions: Human immunodeficiency virus 1, Bal
[7] = molecular target: Voltage-gated inwardly rectifying potassium channel KCNH2 (Homo sapiens, UniProt Q12809); test: Displacement of [3H]dofetilide form human ERG expressed in HEK239 cells
[8] = molecular target: T1, C-C chemokine receptor type 5; test: Antagonist activity at human recombinant CCR5 expressed in human HeLa-P4 cells assessed as inhibition of human HeLa-P4 cells binding to HIV1 gp160 expressing CHO cells at 100 nM by cell-cell fusion assay; assay type: cell-based; set-up: scale not given: the % may be the effect or the level left
Target sequence in this assay (P51681 whole entry, looked up, the tested form may be a part): as above

Chain of Voltage-gated inwardly rectifying potassium channel KCNH2 (Q12809 whole entry, the tested form may be a part): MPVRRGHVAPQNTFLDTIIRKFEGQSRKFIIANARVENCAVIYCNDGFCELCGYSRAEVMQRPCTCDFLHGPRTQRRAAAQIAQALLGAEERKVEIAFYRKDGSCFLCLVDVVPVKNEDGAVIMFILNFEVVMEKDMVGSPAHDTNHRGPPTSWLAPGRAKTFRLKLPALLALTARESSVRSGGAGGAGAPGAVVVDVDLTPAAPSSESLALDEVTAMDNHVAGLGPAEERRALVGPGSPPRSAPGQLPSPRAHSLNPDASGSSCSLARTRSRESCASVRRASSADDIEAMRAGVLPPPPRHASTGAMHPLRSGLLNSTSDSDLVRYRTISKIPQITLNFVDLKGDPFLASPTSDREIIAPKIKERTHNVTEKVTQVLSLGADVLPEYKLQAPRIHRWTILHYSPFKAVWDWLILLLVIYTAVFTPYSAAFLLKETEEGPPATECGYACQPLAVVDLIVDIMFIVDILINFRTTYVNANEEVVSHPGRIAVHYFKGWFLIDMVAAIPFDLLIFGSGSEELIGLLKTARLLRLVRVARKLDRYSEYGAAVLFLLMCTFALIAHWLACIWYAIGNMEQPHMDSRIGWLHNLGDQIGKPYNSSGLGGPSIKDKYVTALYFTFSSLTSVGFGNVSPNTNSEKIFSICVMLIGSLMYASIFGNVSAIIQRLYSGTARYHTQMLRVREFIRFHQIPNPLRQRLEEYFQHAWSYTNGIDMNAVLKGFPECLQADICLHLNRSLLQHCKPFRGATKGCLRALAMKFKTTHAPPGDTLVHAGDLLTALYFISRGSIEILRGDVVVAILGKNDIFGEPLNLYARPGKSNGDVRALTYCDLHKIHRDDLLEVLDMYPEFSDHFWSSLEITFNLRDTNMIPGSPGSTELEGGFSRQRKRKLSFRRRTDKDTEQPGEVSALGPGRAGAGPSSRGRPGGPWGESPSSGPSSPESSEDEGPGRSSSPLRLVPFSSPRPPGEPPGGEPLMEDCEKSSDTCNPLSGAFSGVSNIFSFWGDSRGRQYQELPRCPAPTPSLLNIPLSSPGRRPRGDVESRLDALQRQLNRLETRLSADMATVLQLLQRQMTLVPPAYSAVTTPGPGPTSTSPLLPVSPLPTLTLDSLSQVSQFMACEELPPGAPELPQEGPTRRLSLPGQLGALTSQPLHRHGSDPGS

SMILES: CC(=O)NC(c1ccccc1)C1CCCN(C2CCN(C(=O)c3c(C)cccc3C)CC2)C1 (single isomer, unassigned; diastereomer 2)
- Activity [1]: 0%

SMILES: CC(=O)NC(c1ccccc1)C1CCCN(CCNC(=O)c2c(C)cccc2C)C1 (single isomer, unassigned; diastereomer 1)
- Activity [1]: 20%

SMILES: Cc1ccnc(C)c1C(=O)N1CCC(N2CCC(CNC(=O)C3CC3)(Cc3ccccc3)CC2)CC1
- Activity [2]: 18%

SMILES: CC(=O)NC(c1ccccc1)[C@H]1CCN(C2CCN(C(=O)c3c(C)cccc3C)CC2)C1 (single isomer, unassigned; diastereomer 2)
- Activity [1]: 0%

SMILES: Cc1cccc(C)c1C(=O)N1CCC(N2CC[C@@H](N(Cc3ccccc3)C(=O)C3CC3)C2)CC1
- logD [3]: 2.6
- microsomal CLint at 1 µM [4]: 195 µL/min/mg
- IC50 [5]: 8 nM
- IC90 [6]: 2 nM
- IC50 [7]: 9800 nM

SMILES: Cc1ccnc(C)c1C(=O)N1[C@@H]2CC[C@H]1C[C@@H](N1CCN(C(c3ccccc3)c3ccccc3)CC1)C2
- Activity [1]: 21%

SMILES: CC(=O)NC(c1ccccc1)C1CCCN(C2CCN(C(=O)c3c(C)cccc3C)CC2)C1 (single isomer, unassigned; diastereomer 1)
- Activity [1]: 28%

SMILES: CC(=O)NC1(c2ccccc2)CCN(C2CCN(C(=O)c3c(C)ccnc3C)CC2)CC1
- Activity [1]: 20%

SMILES: Cc1ccnc(C)c1C(=O)N1CCC(N(C)CCC(c2ccccc2)c2ccccc2)CC1
- Activity [8]: 13%

SMILES: Cc1ccnc(C)c1C(=O)N1CCN(C2C[C@H]3CC[C@@H](C2)N3C(c2ccccc2)c2ccccc2)CC1 (mixture of isomers)
- Activity [1]: 25%

SMILES: Cc1cccc(C)c1C(=O)N1CCC(N2[C@@H]3CC[C@H]2C[C@H](N(Cc2ccccc2)C(=O)C2CC2)C3)CC1
- Activity [2]: 10%

SMILES: Cc1cccc(C)c1C(=O)N1CCC(N(C)C2CN(C(CNC(=O)C3CCC3)c3ccccc3)C2)CC1 (centres undefined)
- Activity [1]: 20%

SMILES: Cc1ccnc(C)c1C(=O)N1[C@@H]2CC[C@H]1C[C@H](N1CCN(C(c3ccccc3)c3ccccc3)CC1)C2
- Activity [8]: 6%

SMILES: CC(=O)NC(CN1CC(N(C)C2CCN(C(=O)c3c(C)cccc3C)CC2)C1)c1ccccc1 (centres undefined)
- Activity [1]: 50%

SMILES: Cc1cccc(C)c1C(=O)N1CCC(N2CCCC(N(Cc3ccccc3)C(=O)C3CC3)C2)CC1 (racemic)
- Activity [1]: 19%

SMILES: CC(=O)NC(c1ccccc1)C1CCCN(CCNC(=O)c2c(C)cccc2C)C1 (single isomer, unassigned; diastereomer 2)
- Activity [1]: 12%

SMILES: Cc1ccnc(C)c1C(=O)N1CCN(CCC(c2ccccc2)c2ccccc2)CC1
- Activity [1]: 0%

SMILES: Cc1cccc(C)c1C(=O)N1CCC(N2CCC(N(Cc3ccccc3)C(=O)C3CCC3)CC2)CC1
- logD [3]: 3.5
- microsomal CLint at 1 µM [4]: 205 µL/min/mg
- IC90 [6]: 40 nM

SMILES: Cc1ccnc(C)c1C(=O)NCCN1CCN(C(c2ccccc2)c2ccccc2)CC1
- Activity [8]: 15%

SMILES: Cc1ccnc(C)c1C(=O)N1CCC(N2CCC(C(Cc3ccccc3)C(=O)NCC3CC3)CC2)CC1 (centres undefined)
- Activity [1]: 20%

SMILES: CC(=O)NC(c1ccccc1)[C@H]1CCN(C2CCN(C(=O)c3c(C)cccc3C)CC2)C1 (single isomer, unassigned; diastereomer 1)
- Activity [2]: 18%

SMILES: Cc1ccnc(C)c1C(=O)N1C2CCC1CN(C1CCN(C(c3ccccc3)c3ccccc3)CC1)C2
- Activity [8]: 12%

SMILES: Cc1cccc(C)c1C(=O)N1CCC(N2CCCC(CC(NC(=O)C3CCC3)c3ccccc3)C2)CC1 (mixture of isomers)
- Activity [1]: 20%
